Results taken from patent US8551999B2, “Heterocyclic compound and pharmaceutical composition thereof” (Otsuka Pharmaceutical Co., Ltd., priority 2007, dated 2013).
pIC50: −log10 of the molar value.

Assays:
[1] = system: human chronic myelocytic leukemia cells (KU812); test: Antiproliferative effect on cancer cells (in vitro), WST-8 assay, KU812; format: cell-based; details: 5 days incubation with test compound
Description: The growth inhibition on human chronic myelocytic leukemia cells (KU812) was determined by a WST-8 assay according to the method of Singh A K, et al. (Cancer Lett. 1996 Oct. 1; 107(1): 109-15.). In this method, KU812 cells were seeded in RPMI 1640 medium containing 10% fetal bovine serum in a 96-well microplate and incubated at 37° C. for 24 hours in the presence of 5% carbon dioxide. Then, the test compound was added and the cells were incubated for another 5 days. After incubation, 15 μL of 5 mM WST-8 (2-(2-methoxy-4-nitrophenyl)-3-(4-nitrophenyl)-5-(2,4-disulfenyl)-2H-tetrazolium, monosodium salt) was added and the cells were incubated for 2 hours. After the 2-hour incubation, 15 μL of 1% SDS (sodium dodecyl sulfate) was added and the optical density was determined at the measurement wavelength of 450 nm and the reference wavelength of 630 nm, and the difference was calculated. The cell growth activity in each well was defined as the value determined by subtracting the OD in the control well not containing cells (the difference in absorbance between 492 nm and 690 nm) from that in the test well.
(§1) The 50% inhibitory concentration (IC50 (nM)) of the test compound was determined by comparing the cell growth activity in the well containing the test compound with that of the control not containing the test compound.

[2] = system: human pancreatic cancer cells (HPAC); test: Antiproliferative effect on cancer cells (in vitro), sulforhodamine B method, HPAC; format: cell-based; details: 5 days incubation with test compound
Description: (§2) Growth inhibition of human hepatic cancer cells (HuH-7) was determined by the sulforhodamine B method based on the method of Skehan P. et al. (J Natl Cancer Inst. 1990 Jul. 4; 82(13): 1107-12). In the study, HuH-7 cells were seeded on DMEM medium containing 10% fetal bovine serum in a 96-well microplate. After 24-hour incubation at 37° C. in the presence of 5% carbon dioxide, the test compound was added and the cells were incubated for another 5 days. After incubation, a trichloroacetic acid solution was added to yield the final concentration of 10% and the cells were left to stand at 4° C. for 1 hour to fix. Then, the cells were washed with water to remove the medium and trichloroacetic acid and dried in the air. The dried cells were stored at 4° C. until they were stained with sulforhodamine B. To each well, 1% acetic acid solution containing 0.4% sulforhodamine B was added and left to stand for 20 to 30 minutes at room temperature. After discarding the supernatant, each well was washed with 1% acetic acid solution, and 10 mM Tris ([…]) solution was added while stirring to elute the dye taken into the cells. Then, the optical density was determined at the measurement wavelength of 492 nm and the reference wavelength of 690 nm, and the difference was calculated. The cell growth activity in each well was defined as the value determined by subtracting the OD in the control well not containing cells (the difference in absorbance between 492 nm and 690 nm) from that in the test well.
as §1
The growth inhibition on human pancreatic cancer cells (HPAC) was also determined by the above method using HPAC instead of HuH-7 and RPMI 1640 medium containing 10% fetal bovine serum instead of the DMEM medium containing 10% fetal bovine serum.

[3] = system: Human hepatic cancer cells (HuH-7); test: Antitumor effect on hepatic cancer cells, HuH-7 (in vivo); details: SCID mice bearing HuH-7 tumor, 10 mg/kg/day orally, once daily, 9 consecutive days; ratio of relative tumor volume treatment/control
Description: Human hepatic cancer cells (HuH-7) were transplanted in SCID mice (6 females/group) and the inhibitory effect of the invention on their growth was examined. In the study, 0.2 mL of a cell suspension adjusted to contain 2.5×10^7 cells/mL was injected subcutaneously in the right axilla to prepare tumor bearing mice. When the tumor diameter became 5 mm or more, the animals were allocated to groups based on the tumor volume. The test compound was administered orally as a suspension in 5% gum arabic, once daily, for 9 consecutive days. The control group received 5% gum arabic. Tumor volumes were measured on the following day of the last administration. The relative tumor volume was determined by calculating the ratio of the tumor volume on the following day of the last administration to that at group allocation. The ratio of the relative tumor volume in the treatment group to that in the control group (T/C %) was calculated as the index for the effect. Relative tumor volume=Tumor volume on the following day of the last administration/Tumor volume at group allocation. T/C %=(Mean relative tumor volume in the treatment group/Mean relative tumor volume in the control group)×100.

STAT3 = test: Inhibitory effect on IL-6-induced STAT3 phosphorylation in human myeloma cells (in vitro); format: cell-based; details: U266B1 human myeloma cells, IL-6 1 ng/mL, pSTAT3 (Y705) by flow cytometry
Description: The inhibitory effect of the test compound on phosphorylation of STAT3 (signal transducer and activator of transcription-3) in human myeloma cells ([…]) induced by interleukin-6 (IL-6) was examined using the modified method of Tochizawa S. et al. (J Immunol Methods. 2006 Jun. 30; 313(1-2): 29-37). In the study, U266B1 cells were seeded in an RPMI 1640 medium containing 10% fetal bovine serum (FBS) in a 12-well plate and incubated at 37° C. for 2 hours in the presence of carbon dioxide. After incubation, IL-6 was added to yield the concentration of 1 ng/mL and the cells were incubated at 37° C. for 15 minutes in the presence of 5% carbon dioxide. After fixation of the cells by the addition of a buffer containing formaldehyde (Lyse/Fix Buffer, BD Biosciences) at room temperature for 10 minutes, the suspension was centrifuged to remove the supernatant and the cells were treated with ice-cold methanol for 10 minutes to improve the permeability of the cell membrane. The cells were centrifuged to remove methanol and washed twice with Dulbecco's phosphate buffered saline (D-PBS) containing 2% fetal bovine serum (FBS). A fluorescence-labeled anti-phosphorylated STAT3 (pSTAT3) antibody (Alexa Fluor 488-labeled anti-pSTAT3 (Y705) antibody, BD Biosciences) was added for staining in an ice bath for 30 minutes.
The cells were washed once with 2% FBS-containing D-PBS and suspended in 2% FBS-containing D-PBS, and the fluorescence intensity was determined using a flow cytometer (FACS Sort, BD Biosciences). The ratio of fluorescence intensity in the test group to the control group (T/C) was determined from the difference in the geometric mean of pSTAT3 fluorescence intensity between the test compound group of each concentration and the non-stimulated control group according to the following equation by defining the difference in the geometric mean of pSTAT3 fluorescence intensity between the IL-6 induced control and the non-stimulated control as 100%. T/C(%)=([…] of pSTAT3 fluorescence intensity in the cells treated with the test compound—geometric mean of pSTAT3 fluorescence intensity in non-stimulated control)/(geometric mean of fluorescence intensity of IL-6-induced pSTAT3 in the control−geometric mean of pSTAT3 fluorescence intensity in non-stimulated control)×100.
The concentration of the test compound inhibiting phosphorylation of STATS at 50% (IC50; concentration of the test compound corresponding to 50% T/C(%)) was determined using T/C(%) values at the respective concentrations and defined as the index for the inhibitory activity.

[4] = system: LI90 cells, a human hepatic stellate cell line; test: Inhibitory effect on collagen synthesis (in vitro); format: cell-based; details: in the presence of recombinant human TGF-β1, 3H-proline labelled collagen in supernatant
Description: Inhibitory Effect on Collagen Synthesis (In Vitro)
LI90 cells, a human hepatic stellate cell line, were suspended in DMEM (Dulbecco's modified eagle medium) supplemented with 10% inactivated FBS (fetal bovine serum), seeded on a 12-well plate and cultured in a CO2 incubator (preset temperature: 37° C., preset CO2 concentration: 5%). After being cultured for 24 hours, the cells were washed with D-PBS (Dulbecco's phosphate buffered saline), placed in MEM (Eagle's minimum essential medium) supplemented with 0.1% inactivated FBS and then cultured in a CO2 incubator. After being cultured for 3 days, the cells were again washed with D-PBS, placed in MEM (Eagle's minimum essential medium) supplemented with 0.1% inactivated FBS and treated with or without a test compound in the presence of […] recombinant human TGF-β1 (transforming growth factor-β1) in a CO2 incubator for 16 hours. After the incubation, the cells were washed with D-PBS and the medium was replaced with MEM containing 0.25 mM ascorbate. A radio-labeled compound, ^3H-proline, was then added to the culture medium to radio-label the collagen proteins produced. After being cultured for 24 hours, the supernatant was collected and the collagen proteins were extracted from the supernatant as acid-soluble fractions. The amount of collagen produced was determined by measuring the radioactivity contained in the fractions. A concentration of test compound that produced 50% inhibition [IC50 value (nM)] on collagen synthesis was calculated by comparing the radioactivity count in a supernatant of test-compound-treated cells with that of untreated cells (control).

[5] = system: human hepatic cancer cells (HuH-7); test: Antiproliferative effect on cancer cells (in vitro), sulforhodamine B method, HuH-7; format: cell-based; details: HuH-7 cells, 5 days incubation with test compound
Description: as §2, §1

pIC50 ([1]; Homo sapiens, 120 h)	melting point	pIC50 ([2]; Homo sapiens, 120 h)	pIC50 (STAT3)	pIC50 [4]	pIC50 ([5]; Homo sapiens, 120 h)	pIC50 [1]	pIC50 [2]	pIC50 [5]	SMILES	T/C % [3]
> 8.70	146 to 147 °C	> 7.15	> 8.00	> 8.00	> 8.00				CN(C(=O)c1ccc(C(F)(F)F)cc1)c1ccc(Oc2ccc3c(c2)cc(C(=O)N2CCN(Cc4ccc(OC(F)F)cc4)CC2)n3C)nc1.O=C(O)/C=C\C(=O)O [Example 401, N-(6-{2-[4-(4-Difluoromethoxybenzyl)piperazine-1-carbonyl]-1-methyl-1H-indol-5-yloxy}pyridin-3-yl)-N-methyl-4-trifluoromethyl-benzamide maleate]	<50%
				> 8.00		> 8.70	> 7.15	> 8.00	Br.CN(C(=O)c1ccc(OC(F)(F)F)cc1)c1ccc(Oc2ccc3cc(C(=O)N4CCN(Cc5ccc(OC(F)F)cc5)CC4)n(C)c3c2)nc1 [Example 473, N-(6-{2-[4-(4-Difluoromethoxybenzyl)piperazine-1-carbonyl]-1-methyl-1H-indol-6-yloxy}pyridin-3-yl)-N-methyl-4-trifluoro-methoxybenzamide hydrobromide]	<50%
